Results reported in paper PMC10925993, “6-Aryl-4-cycloamino-1,3,5-triazine-2-amines: synthesis, antileukemic activity, and 3D-QSAR modelling” (RSC Advances, 2024).
Entries after “also recorded” stand apart in the source; their conditions may differ. Like-named read-outs stand apart in the source and are kept apart here.

How the values were obtained:
[1] = system: Jurkat T cells; test: Antiproliferative screening at 10 μM, MTS assay; type: cell-based, human; conditions: for viability at 10 µM: Homo sapiens, Jurkat T cells, 72 h after treatment, MTS, mean of three independent experiments, read-out: Cell viability (%)
Procedure: The Jurkat T cell line was chosen for its reliability as a model for chemotherapeutic studies, particularly in T-cell leukemia.[13]
An MTS (3-(4,5-dimethylthiazol-2-yl)-5-(3-carboxymethoxyphenyl)-2-(4-sulfophenyl)-2H-tetrazolium inner salt) assay[20] was used to assess the leukemic cell viability. […] A total of 2 × 10^3 cells per 100 μL cell culture media were seeded into each well of a 96-well plate and incubated for 24 h. Then, tested compounds or reference drugs [6-mercaptopurine (Merck Millipore, Germany), methotrexate (Merck Millipore, Germany) and cytarabine (Merck Millipore, Germany)] were added, followed by incubation for 72 h. […] The absorbance in each well was measured at 490 nm using a microplate reader (Tecan NanoQuant Infinite M200 Pro, Austria). The percentage of cell viability was estimated by comparing absorbance in wells with the treated and untreated (vehicle control) cells using the following formula: ODtreated/ODuntreated × 100%. All experiments were performed in triplicate and repeated in three independent experiments. The GI50 values were calculated using sigmoidal concentration-response curves generated by the GraphPad Prism 8 program.[21]

[2] = system: Jurkat T cells; test: Inhibition of Jurkat T cell growth (GI50), MTS assay; type: cell-based; conditions: Homo sapiens
Procedure: These compounds were selected for further testing to estimate their 50% growth inhibition (GI50) value. Standard antileukemic drugs mercaptopurine, methotrexate and cytarabine were chosen as positive controls.
An MTS (3-(4,5-dimethylthiazol-2-yl)-5-(3-carboxymethoxyphenyl)-2-(4-sulfophenyl)-2H-tetrazolium inner salt) assay[20] was used to assess the leukemic cell viability. Jurkat T cells (human leukemic T cell, clone E6-1) from American Type Culture Collection (ATCC) were cultured in RPMI-1640 medium (Nacalai Tesque, Japan) supplemented with 10% v/v fetal bovine serum (FBS) (Biosera, France). The cells were maintained at 37 °C in a humidified 5% CO2 incubator (Thermo Fisher, USA). A total of 2 × 10^3 cells per 100 μL cell culture media were seeded into each well of a 96-well plate and incubated for 24 h. Then, tested compounds or reference drugs [6-mercaptopurine (Merck Millipore, Germany), methotrexate (Merck Millipore, Germany) and cytarabine (Merck Millipore, Germany)] were added, followed by incubation for 72 h. After that, a mixture of MTS (Sigma Aldrich, USA) and phenazine methosulfate (PMS) (Nacalai Tesque, Japan) were added to each well, followed by another incubation for 1 h to 4 h at 37 °C. The absorbance in each well was measured at 490 nm using a microplate reader (Tecan NanoQuant Infinite M200 Pro, Austria). The percentage of cell viability was estimated by comparing absorbance in wells with the treated and untreated (vehicle control) cells using the following formula: ODtreated/ODuntreated × 100%. All experiments were performed in triplicate and repeated in three independent experiments. The GI50 values were calculated using sigmoidal concentration-response curves generated by the GraphPad Prism 8 program.[21]

[3] = system: Jurkat T cells; test: AO/PI double fluorescence staining, cell morphology study; type: cell-based, human; conditions: treatment at GI50 concentration, 24 h, 48 h, 72 h
Procedure: The GI50 value for this compound was selected as the treatment concentration. […] Moreover, some Jurkat T cells underwent late stages of apoptosis as shown by the reddish-orange stain (Fig. 4C). Similar events also occurred 48 h and 72 h after the treatment but with a lower number of viable cells (Fig. 4D and E).
Fluorescence microscopy was applied to portray apoptotic and necrotic changes in Jurkat T cells using AO/PI fluorescence staining.[23] The Jurkat T cells were cultured as described above. A total of 5 × 10^5 cells (based on the doubling time for the cell line) per 1 mL cell culture media were seeded into each well of a 6-well plate (Biologix, USA) and incubated for 24 h. […] The fluorescence dye containing AO (10 μg mL^−1, 16 μL) and PI (10 μg mL^−1, 13 μL) was prepared immediately prior to use. The treated cells, positive and negative controls containing dyes were examined immediately under an inverted UV-fluorescent microscope (Nikon Ti2-E, Japan) to prevent fluorescence dyes from fading. The images of viable cells and non-viable cells after treatment were taken by Nikon Ti2-E software. The observations were repeated in three independent experiments.

[4] = GI50 against Jurkat T cells converted to negative logarithmic scale, read-out: Experimental pGI50 (converted)
[5] = concentration required to inhibit Jurkat T cell growth by 50%, 72 h, MTS, mean of three independent experiments, read-out: GI50 ± SEM

SMILES | melting point [°C] | GI50 [2, 4] [µM] | GI50 [2, 5] [µM] | viability at 10 µM [1] [%] | Antiproliferative activity against Jurkat T cells (in words) ([1]; screening concentration 10 μM, 72 h) | Jurkat T cell morphology, type of cell death (AO/PI staining) [3]
CC1CCN(c2nc(N)nc(-c3cccs3)n2)CC1 [9{3,18}, 4-(4-Methylpiperidino)-6-(2-thienyl)-1,3,5-triazine-2-amine] | 155 to 156 | 28.2 | 28.2 ± 1.03 | 35 | – | –
Nc1nc(-c2ccc(Cl)cc2)nc(N2CCc3ccccc3C2)n1 [9{6,4}, 6-(4-Chlorophenyl)-4-(3,4-dihydroisoquinolin-2(1H)-yl)-1,3,5-triazine-2-amine] | 183 to 184 | 3.31 | 3.3 ± 0.65 | 2 | – | –
COc1ccc(-c2nc(N)nc(N3CCc4ccccc4C3)n2)cc1 [9{6,9}, 6-(4-Methoxyphenyl)-4-(3,4-dihydroisoquinolin-2(1H)-yl)-1,3,5-triazine-2-amine] | 165 to 166 | 29.5 | 29.6 ± 2.2 | 14 | – | –
Nc1nc(-c2cccc(OCc3ccccc3)c2)nc(N2CCc3ccccc3C2)n1 [9{6,14}, 6-(3-(Benzyloxy)phenyl)-4-(3,4-dihydroisoquinolin-2(1H)-yl)-1,3,5-triazine-2-amine] | 143 to 144 | 6.61 | 6.54 ± 0.34 | 23 | – | –
COc1ccc(-c2nc(N)nc(N3CCc4ccccc4C3)n2)cc1OC [9{6,16}, 6-(3,4-Dimethoxyphenyl)-4-(3,4-dihydroisoquinolin-2(1H)-yl)-1,3,5-triazin-2-amine] | 159 to 160 | 11.7 | 11.6 ± 2.12 | 23 | – | –
Nc1nc(-c2ccc(OCc3ccccc3)cc2)nc(N2CCc3ccccc32)n1 [9{7,15}, 6-(4-(Benzyloxy)phenyl)-4-(indolin-1-yl)-1,3,5-triazine-2-amine] | 188 to 189 | 22.9 | 23.07 ± 0.08 | 32 | – | –
COc1cc(-c2nc(N)nc(N3CCc4ccccc43)n2)cc(OC)c1OC [9{7,17}, 6-(3,4,5-Trimethoxyphenyl)-4-(indolin-1-yl)-1,3,5-triazine-2-amine] | 199 to 200 | 6.76 | 6.73 ± 0.43 | 10 | – | –
Nc1nc(-c2cccs2)nc(N2CCc3ccccc32)n1 [9{7,18}, 4-(Indolin-1-yl)-6-(2-thienyl)-1,3,5-triazine-2-amine] | 163 to 164 | 6.03 | 6.03 ± 0.64 | 20 | – | –

The next lines start with results.

melting point [°C] | GI50 [2, 4] [µM] | GI50 [2, 5] [µM] | SMILES | viability at 10 µM [1] [%] | Antiproliferative activity against Jurkat T cells (in words) ([1]; screening concentration 10 μM, 72 h) | Jurkat T cell morphology, type of cell death (AO/PI staining) [3]
152 to 153 | 3.24 | 3.23 ± 0.88 | CC1CCN(c2nc(N)nc(-c3ccc(OC(F)(F)F)cc3)n2)CC1 [9{3,12}, 6-[4-(Trifluoromethoxy)phenyl]-4-(4-methylpiperidino)-1,3,5-triazine-2-amine] | 5 | effectively inhibited Jurkat T cell growth | –
145 to 146 | 1.15 | 1.14 ± 0.13 | Cc1cccc(-c2nc(N)nc(N3CCc4ccccc4C3)n2)c1 [9{6,5}, 6-(3-Methylphenyl)-4-(3,4-dihydroisoquinolin-2(1H)-yl)-1,3,5-triazine-2-amine] | 2 | – | –
166 to 167 | 1.78 | 1.79 ± 0.58 | Cc1ccc(-c2nc(N)nc(N3CCc4ccccc4C3)n2)cc1 [9{6,6}, 6-(4-Methylphenyl)-4-(3,4-dihydroisoquinolin-2(1H)-yl)-1,3,5-triazine-2-amine] | 4 | – | –
162 to 164 | 2.45 | 2.43 ± 0.57 | CC(C)(C)c1ccc(-c2nc(N)nc(N3CCc4ccccc4C3)n2)cc1 [9{6,7}, 6-[4-(tert-Butyl)phenyl]-4-(3,4-dihydroisoquinolin-2(1H)-yl)-1,3,5-triazine-2-amine] | 1 | – | –
181 to 182 | 3.24 | 3.23 ± 0.16 | Nc1nc(-c2ccc(C(F)(F)F)cc2)nc(N2CCc3ccccc3C2)n1 [9{6,11}, 6-[4-(Trifluoromethyl)phenyl]-4-(3,4-dihydroisoquinolin-2(1H)-yl)-1,3,5-triazine-2-amine] | 3 | – | –
119 to 120 | 1.17 | 1.18 ± 0.22 | Nc1nc(-c2ccc(OC(F)(F)F)cc2)nc(N2CCc3ccccc3C2)n1 [9{6,12}, 6-[4-(Trifluoromethoxy)phenyl]-4-(3,4-dihydroisoquinolin-2(1H)-yl)-1,3,5-triazine-2-amine] | 3 | – | –
128 to 129 | 1.55 | 1.54 ± 0.66 | Nc1nc(-c2cccc(Oc3ccccc3)c2)nc(N2CCc3ccccc3C2)n1 [9{6,13}, 4-(3,4-Dihydroisoquinolin-2(1H)-yl)-6-(3-phenoxyphenyl)-1,3,5-triazine-2-amine] | 4 | – | –
195 to 196 | 1.91 | 1.89 ± 0.48 | Nc1nc(-c2ccc(F)cc2)nc(N2CCc3ccccc32)n1 [9{7,3}, 6-(4-Fluorophenyl)-4-(indolin-1-yl)-1,3,5-triazine-2-amine] | 35 | – | –
226 to 227 | 2.14 | 2.12 ± 0.97 | CN(C)c1ccc(-c2nc(N)nc(N3CCc4ccccc43)n2)cc1 [9{7,8}, 6-[4-(N,N-Dimethylamino)phenyl]-4-(indolin-1-yl)-1,3,5-triazine-2-amine] | 30 | – | –
– | 1.02 | 1.02 ± 0.3 | Nc1nc(-c2cccc(F)c2)nc(N2CCc3ccccc3C2)n1 [Compound 9{6,2}, 6-(3-Fluorophenyl)-4-(3,4-dihydroisoquinolin-2(1H)-yl)-1,3,5-triazine-2-amine] | 1 | – | necrotic type of cell death; also recorded: probably involved aponecrosis; also recorded: triggered the aponecrosis
– | – | 0.37 ± 0.03 | CN(Cc1cnc2nc(N)nc(N)c2n1)c1ccc(C(=O)N[C@@H](CCC(=O)O)C(=O)O)cc1 [Methotrexate, methotrexate, reference compound] | – | – | induced the late apoptotic morphological changes
